Measured values: patent EP0917465B1, “ANTIMALARIAL AND ANTI-BABESIOSIS AGENTS AND PHARMACEUTICAL COMPOSITIONS CONTAINING THE SAME AGENTS” (priority 1996, dated 1998)
pIC50: −log10 of the molar value. Read-outs that look alike come from different tables or passages of the source.

How the values were obtained:
[1] = test system: Babesia Bovis, Babesia Canis; assay: In vitro anti-Babesia activity, (3H) hypoxanthine incorporation; assay type: cell-based; settings: read-out: Activité/ Babesia à 10 millimole
Source text: Le procédé de criblage d'activité anti-malaria, basé sur l'incorporation de l'(^3H) Hypoxanthine par le parasite, est utilisé pour tester l'activité anti-métabolique de tels composés sur Babesia Bovis, Babesia Canis. Une relation étroite est trouvée entre le taux d'incorporation de (^3H) Hypoxanthine dans une mesure standard et le pourcentage de cellules parasitées, déterminé par examen microscopique. Cette activité métabolique est quantifiée et évaluée dans le tableau ci-dessous par la cotation +++ pour les molécules affichant dans le test une inhibition de 50 % de l'incorporation de (^3H) Hypoxanthine (ID 50), ces molécules étant à une concentration inférieure ou égale à 0,01 Micromolaire. La cotation est de ++ pour la même activité à une concentration de 0,01 à 0.1 micromolaire et enfin de + pour une concentration inférieure ou égale à 1 Micromolaire.

Plasmodium falciparum = assay: In vitro antimalarial activity, (3H) hypoxanthine incorporation in infected human erythrocytes (Desjardins test); assay type: cell-based; settings: read-out: IC50 exprimée en micromoles
Source text: L'activité antipaludéenne des dérivés selon les exemples précédents est testée sur l'humain infesté par Plasmodium falciparum. Le produit à tester est mis en contact avec les érythrocytes humains infectés pendant 24 heures. Un précurseur radioactif d'acides nucléiques l'Hypoxanthine (^3H) est ensuite ajouté. Le précurseur ne s'incorpore que dans les cellules infectées par un parasite en croissance, c'est à dire dans les cellules que la drogue n'aura pas affectées.
L'aptitude ou non à incorporer le précurseur reflète donc la viabilité des cellules impaludées. La durée des tests est de 60 à 70 heures ( test de DESJARDINS R.E. , CANFIELD C.J., HATNES J.D. et CHULAY J.D., Antimicrob. Agents Chemother. 1979, 16, p 710-718 ). Les résultats sont consignés dans le tableau I ci-après, sous forme de IC50 (ou DE50), soit la concentration de produit dans le milieu expérimental capable d'inhiber in vitro la croissance du parasite d'une valeur de 50%.

[2] = test system: Plasmodium vinckei, petteri, ou chabaudi; assay: Therapeutic index in infected mice: 4-day Peters test activity versus semi-chronic toxicity (DL 50); assay type: in vivo, souris Swiss mâles; settings: ratio of activity to toxicity under identical conditions, intraperitoneal or subcutaneous, twice a day for 4 days
Source text: Afin d'évaluer l'index thérapeutique des divers produits, on a mesuré l'activité de ceux-ci dans un test in vivo et comparé à la toxicité aiguë chez l'animal . Cette activité est mesurée suivant le test décrit par PETERS W. ( Chemotherapy and Drug résistance in Malaria, 1970). Un composé est administré pendant quatre jours consécutifs à des souris préalablement impaludées par Plasmodium vinckei, petteri, ou chabaudi, ledit composé étant dissous dans une solution de NaCI à 0.9 %. Les préparations sont ainsi administrées par voie intrapéritonéale ou par voie sous-cutanée à des souris Swiss mâles infectées par voie IV, avec Plasmodium petterei ou Plasmodium chabaudi (10^6 cellules infectées ). Le composé est administré deux fois par jour pendant 4 jours consécutifs, la première injection étant pratiquée 2 heures après l'infestation et la deuxième, 10 heures après. La parasitémie est déterminée par un frottis, le jour suivant la fin du traitement. La toxicité est mesurée in vivo selon la même méthode, les animaux ayant reçu dans les conditions d'administration ci-dessus, 2 injections par jour pendant 4 jours ( toxicité semi chronique). Les résultats sont exprimés sous forme de DL 50, soit la dose ayant entraîné la mort de 50% des animaux.
Les résultats des essais sont résumés dans le tableau I ci-après sous forme d'index thérapeutique, soit le rapport de l'activité à la toxicité mésurées dans des conditions identiques comme décrit ci-dessus.

[3] = class of ID 50 for (3H) hypoxanthine incorporation
[4] = Plasmodium falciparum, Erythrocyte, concentration inhibiting in vitro parasite growth by 50 %, human erythrocytes infected with Plasmodium falciparum, 24 h contact, test lasts 60 to 70 h
[5] = concentration inhibiting in vitro parasite growth by 50 %, human erythrocytes infected with Plasmodium falciparum, 24 h contact, test lasts 60 to 70 h
[6] = Plasmodium falciparum, Erythrocyte

## CCC[N+](C)(CC)CCCCCCCCCCCCCC[N+](C)(CC)CCC (stereo not drawn) [EXEMPLE1, N, N'-dimethyl-N, N'-diethyl-N, N'-dipropyl-1, 14 tetradecanediaminium, dibromure]
[1]; [3]
  pIC50: 7.00 to 8.00
Plasmodium falciparum; [4]
  pIC50: 8.00

## CCC[N+](C)(CC)CCCCCCCCCCCCCCC[N+](C)(CC)CCC (stereo not drawn) [EXEMPLE 2, N,N'-dimethyl-N, N'-diethyl-N, N'-dipropyl-1, 15-pentadecanediaminium, dibromure]
[1]; [3]
  pIC50: 6.00 to 7.00
Plasmodium falciparum; [4]
  pIC50: 8.00

## CCC[N+](C)(CC)CCCCCCCCCCCCCCCC[N+](C)(CC)CCC (stereo not drawn) [EXEMPLE 3, N.N'-dimethyl-N.N'-diethyl-N, N'-dipropyl-1,16-exadecanediaminium, dibromure]
[1]; [3]
  pIC50: 7.00 to 8.00
Plasmodium falciparum; [4]
  pIC50: 8.52

## CCC[N+](C)(CC)CCCCCCCCCCCCCCCCC[N+](C)(CC)CCC (stereo not drawn) [EXEMPLE 4, N,N'-dimethyl-N, N'-diethyl-N, N'-dipropyl-1, 17-heptadecanediaminium, dibromure]
[1]; [3]
  pIC50: 7.00 to 8.00
Plasmodium falciparum; [4]
  pIC50: 8.70

## CCC[N+](C)(CC)CCCCCCCCCCCCCCCCCC[N+](C)(CC)CCC (stereo not drawn) [EXEMPLE 5, N,N'-dimethyl-N,N'-diethyl-N,N'-dipropyl-1,18-octadecanediaminium, dibromure]
[1]; [3]
  pIC50: > 8.00
Plasmodium falciparum; [4]
  pIC50: 9.00

## CCC[N+](C)(CC)CCCCCCCCCCCCCCCCCCCC[N+](C)(CC)CCC (stereo not drawn) [EXEMPLE 6, N, N'-dimethyl-N, N'-diethyl-N, N'-dipropyl-1,20-eicosanediaminium, dibromure]
[1]; [3]
  pIC50: 7.00 to 8.00
Plasmodium falciparum; [4]
  pIC50: 8.52

## CCC[N+](C)(CC)CCCCCCCCCCCCCCCCCCCCCC[N+](C)(CC)CCC (stereo not drawn) [EXEMPLE 7, N,N'-dimethyl-N, N'-diethyl-N, N'-dipropyl-1,22-Cosanediaminium, dibromure]
[1]; [3]
  pIC50: 7.00 to 8.00
Plasmodium falciparum; [4]
  pIC50: 8.00

## CCC[N+](CCC)(CCC)CCCCCCCCCCCCCC[N+](CCC)(CCC)CCC [EXEMPLE 8, N, N, N, N', N', N' hexapropyl-1, 14-tetradecanediaminium, dibromure]
[1]; [3]
  pIC50: 6.00 to 7.00
Plasmodium falciparum; [4]
  pIC50: 7.00

## CCC[N+](CCC)(CCC)CCCCCCCCCCCCCCCC[N+](CCC)(CCC)CCC [EXEMPLE 9, N, N, N, N', N', N' hexapropyl-1, 16-hexadecanediaminium, dibromure]
[1]; [3]
  pIC50: > 8.00
Plasmodium falciparum; [5]
  pIC50: 8.15

## CCC[N+](CCC)(CCC)CCCCCCCCCCCCCCCCCCCC[N+](CCC)(CCC)CCC [EXEMPLE 10, N, N, N, N', N', N' hexapropyl-1,20-eicosanediaminium, dibromure]
[1]; [3]
  pIC50: 6.00 to 7.00
Plasmodium falciparum; [4]
  pIC50: 6.15

## CCC[N+](CCC)(CCC)CCCCCCCCCCCCCCCCCCCCCCCC[N+](CCC)(CCC)CCC [EXEMPLE 11, N, N, N, N', N', N' hexapropyl-1,24-tetracosanediaminium, dibromure]
[1]; [3]
  pIC50: 6.00 to 7.00
Plasmodium falciparum; [4]
  pIC50: 5.80

## CCC[N+](CCC)(CCC)CCCCCCCCCCCCCCCC[N+](CCC)(CCC)CCC [EXEMPLE 12, N, N, N, N', N', N' hexapropyl-1,16-hexadecanediaminium, dibromure]
[1]; [3]
  pIC50: 7.00 to 8.00
Plasmodium falciparum; [5]
  pIC50: 9.00

## CC[N+](C)(CC)CCCCCCCCCCCCCCCC[N+](C)(CC)CC [EXEMPLE 13, N,N'-dimethyl-N,N,N',N'-tetraethyl-1,16-hexadecanediaminium, dibromure]
[1]; [3]
  pIC50: > 8.00
Plasmodium falciparum; [4]
  pIC50: 9.30

## CC[N+](C)(CC)CCCCCCCCCCCCCCCCCC[N+](C)(CC)CC [EXEMPLE 14, N,N'-dimethyl-N,N,N',N'-tetraethyl-1,18 octadecanediaminium, dibromure]
[2]
  Index thérapeutique: 14
[1]
  pIC50: > 8.00
Plasmodium falciparum; [6]
  pIC50: 10.40

## CC[N+](C)(CC)CCCCCCCCCCCCCCCCCCCCC[N+](C)(CC)CC [EXEMPLE 15, N,N'-dimethyl-N,N,N',N'-tetraethyl-1,21-heneicosanediaminium, dibromure]
[1]; [3]
  pIC50: > 8.00
Plasmodium falciparum; [4]
  pIC50: 11.52

## C[N+]1(CCCCCCCCCCCCCC[N+]2(C)CCCC2)CCCC1 [EXEMPLE 16, 1,1'-(1,14-tetradecanediyl) bis (1-methylpyrrolidinium) dibromure]
[2]
  Index thérapeutique: 8
[1]
  pIC50: > 8.00
Plasmodium falciparum; [6]
  pIC50: 9.05

## C[N+]1(CCCCCCCCCCCCCCCC[N+]2(C)CCCC2)CCCC1 [EXEMPLE 17, 1,1-(1,16-hexadecanediyl) bis (1-methylpyrrolidinium) dibromure]
[1]; [3]
  pIC50: > 8.00
Plasmodium falciparum; Erythrocyte, concentration inhibiting in vitro parasite growth by 50 %, human erythrocytes infected with Plasmodium falciparum, 24 h contact, test lasts 60 to 70 h
  pIC50: 9.22

## C[N+]1(CCCCCCCCCCCCCCCCCCCCCC[N+]2(C)CCCC2CO)CCCC1CO (stereo not drawn) [EXEMPLE 19, 1,1'-(1,22-docosanediyl) bis (2-hydroxymethyl1-methylpyrrolidinium) dibromure]
[1]; [3]
  pIC50: 6.00 to 7.00
Plasmodium falciparum; [4]
  pIC50: 7.15

## C[N+]1(CCCCCCCCCCCCCCCC[N+]2(C)CCOCC2)CCOCC1 [EXEMPLE 21, 1,1'-(1.16-hexadecanediyl) bis (1-methylmorpholinium) dibromure]
[1]; [3]
  pIC50: > 8.00
Plasmodium falciparum; [4]
  pIC50: 9.00

## CCCCCCCCCCCC[N+](C)(C)CCCCCCCCCCCCCCCC[N+](C)(C)CCCCCCCCCCCC [EXEMPLE 22, N,N'-didodecyl-N,N,N',N'-tetramethyl- 1,16 hexadecanediaminium dibromure]
[1]; [3]
  pIC50: 7.00 to 8.00
Plasmodium falciparum; [4]
  pIC50: 6.00

## CCCCCCCCCCCC[N+](C)(C)CCCCCCCCCCCCCCCCCC[N+](C)(C)CCCCCCCCCCCC [EXEMPLE 23]
[1]; [3]
  pIC50: 6.00 to 7.00
Plasmodium falciparum; [4]
  pIC50: 7.00

## C#CC[N+](C)(C)CCCCCCCCCCCCCC[N+](C)(C)CC#C [EXEMPLE 24, N,N'-di (2-propynyl)-N,N,N',N'-tetramethyl-1,14-tetradecane diaminium dibromure]
[1]; [3]
  pIC50: 7.00 to 8.00
Plasmodium falciparum; [4]
  pIC50: 8.15

## C=CC[N+](C)(C)CCCCCCCCCCCCCC[N+](C)(C)CC=C [EXEMPLE 25, N,N'-di (2-propenyl)-N,N,N',N'-tetramethyl-1,14 tetradecane diaminium dibromure]
[2]
  Index thérapeutique: 15
[1]
  pIC50: > 8.00
Plasmodium falciparum; [6]
  pIC50: 8.30

## C#CCC[N+](C)(C)CCCCCCCCCCCCCC[N+](C)(C)CCC#C [EXEMPLE 26, N,N'-di (3-butynyl)-N, N, N', N'-tetramethyl 1,14-tetradecanediaminium dibromure]
[2]
  Index thérapeutique: 45
[1]
  pIC50: 7.00 to 8.00
Plasmodium falciparum; [6]
  pIC50: 7.40

## CCC[N+](CCC)(CCO)CCCCCCCCCCCCCC[N+](CCC)(CCC)CCO [EXEMPLE 27, N, N'-di-(2-hydroxyethyl) -N, N, N', N'-tetrapropyl-1, 14 tetradecane diaminium dibromure]
[1]; [3]
  pIC50: 7.00 to 8.00
Plasmodium falciparum; [4]
  pIC50: 8.00

## CCC[N+](CCC)(CCCCCCCCCCCCCC[N+](CCC)(CCC)CCOCC)CCOCC [EXEMPLE 28, N, N'-di-(2-ethoxyethyl)-N, N, N', N'-tetrapropyl-1, 14 tetradecanediaminium dibromure]
[1]; [3]
  pIC50: > 8.00
Plasmodium falciparum; [4]
  pIC50: 8.00

## CCC[N+](CCC)(CCO)CCCCCCCCCCCCCCCC[N+](CCC)(CCC)CCO [EXEMPLE 29, N, N'-di-(2-hydroxyethyl) -N, N, N', N'-tetrapropyl-1, 1 6 hexadecane diaminium dibromure]
[1]; [3]
  pIC50: 7.00 to 8.00
Plasmodium falciparum; [4]
  pIC50: 8.30

## CCC[N+](CCC)(CCO)CCCCCCCCCCCCCCCCCCCC[N+](CCC)(CCC)CCO [EXEMPLE 30, N, N'-di-(2-hydroxyethyl)-N, N, N', N'-tetrapropyl-1,20-eicosanediaminium dibromure]
[1]; [3]
  pIC50: > 8.00
Plasmodium falciparum; [4]
  pIC50: 9.52
